The values that follow come from patent US9073862B2, “Substituted 2-oxy-quinoline-3-carboxamides as KCNQ2/3 modulators” (Grünenthal GmbH, priority 2010, dated 2015).

In general, EC50 refers to the concentration that produces a half-maximal response. What is called ED50 is the dose at which the effect has come halfway, by size or by number of responders.

Experiment [1] has as its target T1, KCNQ2/3 channels (Homo sapiens, UniProt O43525+O43526).
T1 construct: expressed in transfected cells; host or cells: CHO-K1
Briefly: Fluorescence assay using a voltage sensitive dye (fluorimetry). The format is cell-based. To be noted: CHO-K1 cells expressing KCNQ2/3 channels; for Emax: relative to retigabine = 100%, read-out: Fluorimetry % efficacy (retigabine = 100%). How it is done: Method I. Fluorescence Assay Using a Voltage Sensitive Dye (Fluorimetry)
[…] CHO-K1 cells expressing KCNQ2/3 channels are cultivated adherently at 37° C., 5% CO2 and 95% humidity in cell culture bottles (e.g. 80 cm^2 TC flasks, Nunc) with DMEM-high glucose (Sigma Aldrich, D7777) including 10% FCS (PAN Biotech, e.g. 3302-P270521) or alternatively MEM Alpha Medium (1×, liquid, Invitrogen, #22571), 10% fetal calf serum (FCS) (Invitrogen, #10270-106, heat-inactivated) and the necessary selection antibiotics.
Before being sown out for the measurements, the cells are washed with 1×DPBS buffer Ca^2+/Mg^2+-free (e.g. Invitrogen, #14190-094) and detached from the bottom of the culture vessel by using Accutase (PAA Laboratories, #L11-007) (incubation with Accutase for 15 min at 37° C.). The cell number is determined using a CASY™ cell counter (TCC, Schärfe System). Depending on the optimal density for each individual cell line, 20,000-30,000 cells/well/100 μl are seeded onto 96-well Corning™ CellBIND™ assay plates (Flat Clear Bottom Black Polystyrene Microplates, #3340). Freshly seeded cells are then left to settle for one hour at room temperature, followed by incubation for 24 hours at 37° C., 5% CO2 and 95% humidity.
The voltage-sensitive fluorescent dye from the Membrane Potential Assay Kit (Red™ Bulk format part R8123 for FLIPR, MDS Analytical Technologies™) is prepared by dissolving the contents of one vessel Membrane Potential Assay Kit Red Component A in 200 ml of extracellular buffer (ES buffer, 120 mM NaCl, 1 mM KCl, 10 mM HEPES, 2 mM CaCl2, 2 mM MgCl2, 10 mM glucose; pH 7.4). After removal of the nutrient medium, the cells are washed once with 200 μl of ES buffer, then loaded for 45 min at room temperature in 100 μl of dye solution in the dark.
Fluorescence measurements are carried out in a BMG Labtech FLUOstar™, BMG Labtech NOVOstar™ or BMG Labtech POLARstar™ instrument (525 nm excitation, 560 nm emission, Bottom Read mode). After incubation with the dye, 50 μl of the test substances in the desired concentrations, or 50 μl of ES buffer for control purposes, are applied to the wells of the assay plate and incubated for 30 min at room temperature while being shielded from light. The fluorescence intensity of the dye is then measured for 5 min and the fluorescence value F1 of each well is thus determined at a given, constant time. 15 μl of a KCl solution are then added to each well (final concentration of potassium ions 92 mM). The change in fluorescence intensity is subsequently monitored until all the relevant values have been obtained (mainly 5-30 min). At a given time post KCl application, a fluorescence value F2 is determined, in this case at the time of the fluorescence peak.
For calculation, the fluorescence intensity F2 is corrected for the fluorescence intensity F1, and the activity (ΔF/F) of the target compound on the potassium channel is determined as follows:
In order to determine whether a substance has agonistic activity,
[formula] can be related to
[formula] of control wells.
[formula] is determined by adding to the well only the buffer solution instead of the test substance, determining the value F1K of the fluorescence intensity, adding the potassium ions as described above, and measuring a value F2K of the fluorescence intensity. F2K and F1K are then calculated as follows: […]
A substance has an agonistic activity on the potassium channel if
[formula] is greater than
Independently of the comparison of
[formula] it is possible to conclude that a target compound has agonistic activity if
[formula] increases dose dependently.
Calculations of EC50 and IC50 values are carried out with the aid of ‘Prism v4.0’ software (Graph Pad Software™).

Experiment [2] deals with withdrawal reflex of the rat tail (tail flick) in response to a radiant heat beam. Briefly: Low-intensity tail flick test (rat). Conditions: po, peroral; for ED50: at time of maximum efficacy. The format is in vivo. On the procedure: Method II. Low-Intensity Tail Flick Test (Rat)
In the low-intensity tail flick test, the determination of the antinociceptive effect of the compounds according to the invention towards an acute noxious thermal stimulus is carried out by measuring the withdrawal reflex of the rat tail (tail flick) in response to a radiant heat beam (analgesia meter; model 2011 of the company Rhema Labortechnik, Hofheim, Germany) according to the method described by D'Amour and Smith (J. Pharm. Exp. Ther. 72, 74 79 (1941). To this end, the rats were placed in a plexiglas restrainer, and a low-intensity radiant heat beam (48° C.) was focused onto the dorsal surface of the tail root. The stimulus intensity was adjusted to result in a mean pre-drug control withdrawal latency of about 7 s, thus also allowing a supraspinal modulation of the spinally mediated acute nociceptive reflex. A cutoff time of 30 s was applied to avoid tissue damage. Male Sprague-Dawley rats (Janvier, Le Genest St. Isle, Frankreich) with weights of 200-250 g were used. 10 rats were used per group. Before administration of a compound according to the invention, the animals were pre-tested twice in the course of five minutes and the mean of these measurements was calculated as the pre-test mean. The antinociceptive effect was determined at 20, 40 and 60 min after peroral compound administration. The antinociceptive effect was calculated based on the increase in the tail withdrawal latency according to the following formula and is expressed as percentage of the maximum possible effect (MPE [%]): MPE=[(T1−T0)/(T2−T0)]*100
In this, T0 is the control latency time before and T1 the latency time after administration of the compound, T2 is the cutoff time and MPE is the maximum possible effect. Employing variant analysis (repeated measures ANOVA) allowed testing of statistically significant differences between the compounds according to the invention and the vehicle group. The significance level was set to p≦0.05. To determine the dose dependency, the particular compound according to the invention was administered in 3-5 logarithmically increasing doses, including a threshold dose and a maximum effective dose, and the ED50 values were determined with the aid of regression analysis. The ED50 calculation was performed at the time of maximum efficacy (usually 20 min after administration of the compounds).
For orientation: In hot-plate and tail-flick tests a longer latency is read as antinociception.

The mark [3] stands for this setting: read-out: Low intensity tail flick, rat, peroral, MPE (dose).

With `CCOc1nc2cc(C(F)(F)F)ccc2c(C)c1C(=O)NCc1ccc(F)cc1` [Example 3, 2-ethoxy-N-[(4-fluorophenyl)-methyl]-4-methyl-7-(trifluoromethyl)-quinoline-3-carboxylic acid amide], in experiment [1], the EC50 was 39 nM and the Emax is 122%. In experiment [2], this compound came in with an ED50 of 2.5 mg/kg.

Regarding `COc1nc2cc(C(F)(F)F)ccc2c(C)c1C(=O)NCc1cccc(F)c1` [Example 4, N-[(3-fluorophenyl)-methyl]-2-methoxy-4-methyl-7-(trifluoromethyl)-quinoline-3-carboxylic acid amide], in experiment [1], it took 73 nM to reach a half-maximal effect (EC50) and the Emax is 105%. For the same compound, in experiment [2], the ED50 was determined as 6.7 mg/kg.

As to `COc1nc2cc(C(F)(F)F)ccc2c(C)c1C(=O)NCc1ccc(F)cc1` [Example 5, N-[(4-fluorophenyl)-methyl]-2-methoxy-4-methyl-7-(trifluoromethyl)-quinoline-3-carboxylic acid amide], in experiment [1], the EC50 came out at 57 nM and the Emax was determined as 122%. Further, the inhibition in vivo at 6.81 mg/kg in experiment [2] (dose 6.81 mg/kg, read-out: Low intensity tail flick, rat, peroral, MPE (dose)) turned out to be 34%.

Regarding `CCOc1nc2cc(C(F)(F)F)ccc2c(C)c1C(=O)NCc1cccc(F)c1` [Example 6, 2-ethoxy-N-[(3-fluorophenyl)-methyl]-4-methyl-7-(trifluoromethyl)-quinoline-3-carboxylic acid amide], in experiment [1], the EC50 was 58 nM and the Emax is 132%. Moreover, in experiment [2] (setting [3]), the inhibition in vivo at 4.64 mg/kg amounted to 67%.

Turning to `COCCOc1nc2cc(C(F)(F)F)ccc2c(C)c1C(=O)NCc1cccc(F)c1` [Example 7, N-[(3-fluorophenyl)-methyl]-2-(2-methoxy-ethoxy)-4-methyl-7-(trifluoromethyl)-quinoline-3-carboxylic acid amide], in experiment [1], the midpoint of the response, the EC50, lay at 96 nM and the Emax was 92%. In addition, the 50% effective dose (ED50) in experiment [2] was found to be 10 mg/kg.

As for `COCCOc1nc2cc(C(F)(F)F)ccc2c(C)c1C(=O)NCc1ccc(F)cc1` [Example 8, N-[(4-fluorophenyl)-methyl]-2-(2-methoxy-ethoxy)-4-methyl-7-(trifluoromethyl)-quinoline-3-carboxylic acid amide], in experiment [1], the EC50 was 143 nM and the Emax was found to be 94%. In experiment [2] (dose 10.00 mg/kg, read-out: Low intensity tail flick, rat, peroral, MPE (dose)), the inhibition in vivo at 10 mg/kg was determined as 22%.

`Cc1c(C(=O)NCc2cccc(F)c2)c(OC(C)C)nc2cc(C(F)(F)F)ccc12` [Example 10, N-[(3-fluorophenyl)-methyl]-2-isopropoxy-4-methyl-7-(trifluoromethyl)-quinoline-3-carboxylic acid amide]: in experiment [1], the EC50 stood at 87 nM and the Emax came out at 175%. This compound had an ED50 in experiment [2] of 3.8 mg/kg.

Take `CCOc1nc2cc(C(F)(F)F)ccc2c(OC)c1C(=O)NCc1cccc(F)c1` [Example 12, 2-ethoxy-N-[(3-fluorophenyl)-methyl]-4-methoxy-7-(trifluoremethyl)-quinoline-3-carboxylic acid amide]: in experiment [1], the midpoint of the response, the EC50, lay at 104 nM and the Emax is 170%. Moreover, the inhibition in vivo at 4.64 mg/kg in experiment [2] (setting [3]) worked out at 27%.

For the compound `COc1nc2cc(C(F)(F)F)ccc2c(C)c1C(=O)NCc1cc(F)ccc1O` [Example 44, N-[(5-fluoro-2-hydroxy-phenyl)-methyl]-2-methoxy-4-methyl-7-(trifluoromethyl)-quinoline-3-carboxylic acid amide], in experiment [1], the EC50 amounted to 79 nM and the Emax stood at 173%.

As to `COc1nc2cc(C(F)(F)F)ccc2c(C)c1C(=O)NCc1ccc(O)c(F)c1` [Example 45, N-[(3-fluoro-4-hydroxy-phenyl)-methyl]-2-methoxy-4-methyl-7-(trifluoromethyl)-quinoline-3-carboxylic acid amide], in experiment [1], a half-maximal effect (EC50) was put at 2060 nM and the Emax worked out at 87%.

Regarding `COc1nc2cc(F)ccc2c(C)c1C(=O)NCc1ccc(F)cc1` [Example 46, 7-fluoro-N-[(4-fluorophenyl)-methyl]-2-methoxy-4-methyl-quinoline-3-carboxylic acid amide], in experiment [1], the EC50 came out at 299 nM and the Emax came out at 59%.

Take `COc1nc2cc(F)cc(F)c2c(C)c1C(=O)NCc1cccc(F)c1` [Example 47, 5,7-difluoro-N-[(3-fluorophenyl)-methyl]-2-methoxy-4-methyl-quinoline-3-carboxylic acid amide]: the Emax in experiment [1] was 43%.

Turning to `COc1nc2cc(F)c(F)cc2c(C)c1C(=O)NCc1cccc(F)c1` [Example 48, 6,7-difluoro-N-[(3-fluorophenyl)-methyl]-2-methoxy-4-methyl-quinoline-3-carboxylic acid amide], in experiment [1], the EC50 amounted to 315 nM and the Emax was 96%.

Turning to `COc1nc2c(F)c(F)ccc2c(C)c1C(=O)NCc1cccc(F)c1` [Example 49, 7,8-difluoro-N-[(3-fluorophenyl)-methyl]-2-methoxy-4-methyl-quinoline-3-carboxylic acid amide], in experiment [1], the concentration giving a half-maximal response (EC50) came to 229 nM and the Emax is 70%.

Regarding `COc1nc2ccccc2c(C(F)(F)F)c1C(=O)NCc1cccc(F)c1` [Example 51, N-[(3-fluorophenyl)-methyl]-2-methoxy-4-(trifluoromethyl)-quinoline-3-carboxylic acid amide], the Emax in experiment [1] was 40%.

Consider `CCOc1nc2ccccc2c(C(F)(F)F)c1C(=O)NCc1cccc(F)c1` [Example 52, 2-ethoxy-N-[(3-fluorophenyl)-methyl]-4-(trifluoromethyl)-quinoline-3-carboxylic acid amide], for which, in experiment [1], the EC50 came to 205 nM and the Emax came to 67%.

For the compound `CC(C)Oc1nc2ccccc2c(C(F)(F)F)c1C(=O)NCc1cccc(F)c1` [Example 53, N-[(3-fluorophenyl)-methyl]-2-isopropoxy-4-(trifluoromethyl)-quinoline-3-carboxylic acid amide], in experiment [1], the EC50 is 108 nM and the Emax was 84%.
